Earlier results in US12194028B2 (Slayback Pharma LLC, priority 2022, dated 2025).

aqueous solubility (in water): 40 to 50 µg/mL
solubility (throughout physiological pH range of 1.0-8.0): very low
Compound: COc1ccc(-n2nc(C(N)=O)c3c2C(=O)N(c2ccc(N4CCCCC4=O)cc2)CC3)cc1 [apixaban, 1-(4-methoxyphenyl)-7-oxo-6-[4-(2-oxopiperidin-1-yl)phenyl]-4,5-dihydropyrazolo [3,4-c] pyridine-3-carboxamide]
